# Article PMC12304293, “Combatting virulent gut bacteria by inhibiting the biosynthesis of a two-component lanthipeptide toxin” (Nature Communications, 2025)
# Non-standard residues stand in square brackets, D forms with d. Residues, ends and D or L forms follow the SMILES beside them. *: point of attachment. boroGlu = O=C(O)CC[C@H](N*)B(O)O; Gly(cPr) = N[C@H](C(=O)O)C1CC1
# Columns and labels:
# His6-CylA-27-412 [1] = biological target: T1, His6-CylA-27-412 (Enterococcus faecalis, UniProt A0A2P6AWB8); experiment: Co-operative pore formation assay (pyranine liposomes) measuring CylA-catalyzed cytolysin maturation; format: biochemical
# T1 sequence (A0A2P6AWB8 27-412): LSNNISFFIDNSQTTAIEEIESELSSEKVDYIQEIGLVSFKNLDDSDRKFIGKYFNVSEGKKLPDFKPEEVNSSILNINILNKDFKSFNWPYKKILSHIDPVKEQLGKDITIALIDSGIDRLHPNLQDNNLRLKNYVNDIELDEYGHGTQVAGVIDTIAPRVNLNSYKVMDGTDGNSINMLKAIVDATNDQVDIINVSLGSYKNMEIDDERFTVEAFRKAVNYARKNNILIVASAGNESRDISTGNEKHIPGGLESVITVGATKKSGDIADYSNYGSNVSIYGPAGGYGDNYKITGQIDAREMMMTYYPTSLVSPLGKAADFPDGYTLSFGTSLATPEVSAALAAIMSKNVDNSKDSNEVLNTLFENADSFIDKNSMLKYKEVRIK
# Source text: Cytolysin causes hemolysis and lyses a variety of eukaryotic cells[36],[37]. Additionally, CylA aggregates and is thought to associate primarily with the membrane of the producing cell[52],[53]. To mimic the maturation of cytolysin in vitro, an enzyme assay was designed that linked toxin production to the lysis of fluorescently labeled liposomes. […] In this way, pyranine fluorescence was correlated to toxin activation allowing for the determination of EC50 values (Fig. 4B, C).
# Fig. 4 In vitro pore formation assay for determining inhibitor effectiveness. A A schematic of the assay showing how pore formation is used as an indicator of toxin maturation. […] Pore formation dissipates a pH gradient between the interior of the liposome and the surrounding buffer increasing pyranine fluorescence. […] The data points from two replicates are shown (n = 2). Source data are provided as a Source Data file.
# Pyranine encapsulated liposomes were prepared as described elsewhere. […] To a well in a black 96-well plate (200 µL) was added 90 µL high pH buffer (5 mM MES, 5 mM Tricine, 5 mM NaCl, pH 7.4) containing CylA (4 nM final concentration). After adding inhibitor, the mixture was incubated at room temperature for 10 min then freshly prepared (no more than 2 days old) pyranine encapsulated DOPC liposomes were added such that the total DOPC concentration was 80 µM. […] The resulting curves were max-min normalized yielding the fraction of permeabilized liposomes. […] This experiment was performed in duplicate or triplicate for each inhibitor at each concentration.
# Supplementary Figure 3. Measuring CylA-cat alyzed cytolysin maturation using a pyranine pore formation assay. Plots on the left side show the normalized pyranine emission intensity monitored […]
# was added 30 min later. Each trace w as collected using a differ ent total co ncentration of inhibitor as indicated in the l egend. Traces are from a single representative tri al. On the right side, the fraction of liposomes permeabilized after 30 min was plotted as a function of total inhibitor concentration. The data were fit to a dose-response function using Origin 7 and the fit curve is depicted by the red line. Errors bars represent the standard of deviation bet ween two replicates (n = 2). Source d ata are pro vided as a Source Data file. […]
# His6-CylA-27-412 [2] = biological target: T1, His6-CylA-27-412; experiment: FRET assay, initial rates of FRET peptide cleavage; format: biochemical; settings: 762, 254, or 85 pM of inhibitor (substoichiometric; enzyme 20 nM)
# Method: A FRET assay was developed to directly detect the inhibition of His6-CylA-27-412 activity by inhibitor 9. Fmoc SPPS was used to prepare a FRET labeled substrate. The substrate recognition sequence and a portion of the N-terminus of unmodified CylLS were embedded in between N-terminal Asp(EDANS) and C-terminal Lys(DABCYL) residues (Fig. 5A).
# A Structure of the FRET substrate and its cleavage by CylA. Samples of FRET substrate (44 µM) in PBS (pH = 7.4) before and after treatment with His6-CylA-27-412 (200 nM) overnight at 37 °C. […] Points represent the mean. Error bars represent the standard of deviation and are centered at the mean. C The relationship between relative enzyme activity (vi/vo) and concentration of 9. […] The colored line represents the calculated fit function. Points represent the mean and error bars represent the standard of deviation centered at the mean. […] For (D) and (E) absorbance at 220 nm was monitored. […] Statistical significance was calculated using a one sample and one-sided t test. *P < 0.05, **P < 0.01. […]
# The emission intensity of EDANS was measured over a 4 h period using a BioTek Synergy H4 plate reader. The slope of the linear portion of the emission intensity as a function of time curve was calculated (vi), divided by the slope of an uninhibited control (vo), and the ratio (vi/vo) was plotted as function of total inhibitor concentration.
compound,measurement,setting,value
CC(=O)NCC(=O)N[C@@H](CC(=O)O)C(=O)N[C@H](C(=O)N[C@@H](CCC(N)=O)C(=O)N[C@@H](C)C(=O)N[C@@H](CCC(=O)O)B(O)O)C1CC1 [Compound 9] (Ac-GD[Gly(cPr)]QA-boroGlu),more effective than compound 1 at inhibiting pore formation,His6-CylA-27-412 [1],2 fold
same,rate of FRET peptide cleavage,His6-CylA-27-412 [2],increased significantly
